IC50 data for 32 compounds are collected here from patent publication US20240148744A1 (Celgene Corporation, priority 2021, published 2024).

Some results are limits rather than exact numbers.

In one experiment the test system is Onchocerca gutturosa adult male worms. Nature of the experiment: Onchocerca gutturosa in vitro screening model: adult worm motility score and MTT/formazan viability. Type of experiment: cell-based. As to conditions: read-out: O. gutt Activity class.
For `Cc1ccc(S(=O)(=O)Nc2cc(C)cc3cccnc23)nc1` [Compound 127, 5-methyl-N-(6-methylquin-olin-8-yl)pyr-idine-2-sulfon-amide], the IC50 was less than 200 nM. `O=S(=O)(Nc1cccc2cccnc12)c1ccnc(C2CC2)c1` [Compound 152]: the IC50 was less than 200 nM. `Cc1ccc(S(=O)(=O)Nc2cccc3nccnc23)nc1` [Compound 196, 5-methyl-N-(quinoxalin-5-yl)pyridine-2-sulfonamide]: the IC50 lay in the range of 200 to 500 nM. On the same count and under the same terms, then `Cc1ccc(S(=O)(=O)Nc2ccc(Cl)c3cccnc23)nc1` [Compound 118, N-(5-chloro-quinolin-8-yl)-5-methylpyr-idine-2-sulfon-amide], with less than 200 nM; and `COc1ccnc(S(=O)(=O)Nc2cccc3cccnc23)c1` [Compound 222, 4-methoxy-N-(quinolin-8-yl)pyridine-2-sulfonamide], with less than 200 nM.

Turning to `N#Cc1ccc(-c2cccc(S(=O)(=O)Nc3cccc4cccnc34)n2)cc1` [Compound 178, 6-(4-cyanophenyl)-N-(quinolin-8-yl)pyridine-2-sulfonamide], the IC50 is less than 200 nM.

In the case of `Cc1cccnc1S(=O)(=O)Nc1cccc2ccc(C3CC3)nc12` [Compound 26, N-(2-cyclo-propylquin-olin-8-yl)-3-methylpyr-idine-2-sulfonamide], the IC50 is 500 to 5000 nM. As to `Cc1cccnc1S(=O)(=O)Nc1c(OCC2CC2)ccc2cccnc12` [Compound 16, N-(7-(cyclo-propylmeth-oxy)quinolin-8-yl)-3-meth-ylpyridine-2-sulfonamide], the IC50 was in the range of 500 to 5000 nM. Same read-out and setting: then `O=S(=O)(Nc1cccc2cccnc12)c1cc2ccccc2cn1` [Compound 270, N-(quinolin-8-yl)isoquinoline-3-sulfonamide], with less than 200 nM; and `Cc1ncc(S(=O)(=O)Nc2cccc3cccnc23)cc1Cl` [Compound 180, 5-chloro-6-methyl-N-(quinolin-8-yl)pyridine-3-sulfonamide], with 500 to 5000 nM; and `CCn1ccnc1S(=O)(=O)Nc1c(OC)ccc2cccnc12` [Compound 84, 1-ethyl-N-(7-methoxyquin-olin-8-yl)-1H-imidazole-2-sulfonamide], with less than 200 nM. Take `Cc1ccc(S(=O)(=O)Nc2cccc3cccnc23)cn1` [Compound 157, 6-methyl-N-(quinolin-8-yl)pyridine-3-sulfonamide]: the IC50 fell in the range of 500 to 5000 nM. Still for that read-out and setting: then `Cc1ccc(S(=O)(=O)Nc2cccc3cc(F)cnc23)nc1` [Compound 87, N-(3-fluoro-quinolin-8-yl)-5-methyl-pyridine-2-sulfonamide], with less than 200 nM; and `Cc1ccc(S(=O)(=O)Nc2cc(F)cc3cccnc23)nc1` [Compound 88, N-(6-fluoro-quinolin-8-yl)-5-methyl-pyridine-2-sulfonamide], with 500 to 5000 nM; and `COc1nccc(S(=O)(=O)Nc2cccc3cccnc23)n1` [Compound 197, 2-methoxy-N-(quinolin-8-yl)pyrimidine-4-sulfonamide], with 200 to 500 nM. In the case of `Cc1cccnc1S(=O)(=O)Nc1c(C2CC2)ccc2cccnc12` [Compound 17, N-(7-cyclo-propylquin-olin-8-yl)-3-methylpyr-idine-2-sulfonamide], the IC50 fell in the range of 200 to 500 nM. Still for that read-out and setting: then `C[C@@H](C1CC1)n1ccnc1S(=O)(=O)Nc1cccc2cccnc12` [Compound 185, (S)-1-(1-cyclopropyl-ethyl)-N-(quinolin-8-yl)-1H-imidazole-2-sulfonamide], with less than 200 nM.

In a further experiment the test system is Dirofilaria immitis. Nature of the experiment: Heartworm screen Dirofilaria immitis (stage DiMF/DiL4 not specified in the tables). Type of experiment: cell-based. As to conditions: read-out: D. immitis Activity class.
For `Cc1ccc(S(=O)(=O)Nc2cc(C)cc3cccnc23)nc1` [Compound 127, 5-methyl-N-(6-methylquin-olin-8-yl)pyr-idine-2-sulfon-amide], the IC50 lay in the range of 200 to 500 nM. Take `O=S(=O)(Nc1cccc2cccnc12)c1ccnc(C2CC2)c1` [Compound 152]: the IC50 was 500 to 5000 nM. For the compound `Cc1ccc(S(=O)(=O)Nc2cccc3nccnc23)nc1` [Compound 196, 5-methyl-N-(quinoxalin-5-yl)pyridine-2-sulfonamide], the IC50 lay in the range of 200 to 500 nM. Still for that read-out and setting: then `Cc1ccc(S(=O)(=O)Nc2ccc(Cl)c3cccnc23)nc1` [Compound 118, N-(5-chloro-quinolin-8-yl)-5-methylpyr-idine-2-sulfon-amide], with 500 to 5000 nM. As for `COc1ccnc(S(=O)(=O)Nc2cccc3cccnc23)c1` [Compound 222, 4-methoxy-N-(quinolin-8-yl)pyridine-2-sulfonamide], the IC50 lay within 200 to 500 nM. Regarding `N#Cc1ccc(-c2cccc(S(=O)(=O)Nc3cccc4cccnc34)n2)cc1` [Compound 178, 6-(4-cyanophenyl)-N-(quinolin-8-yl)pyridine-2-sulfonamide], the IC50 is 500 to 5000 nM. Still for that read-out and setting: then `Cc1cccnc1S(=O)(=O)Nc1cccc2ccc(C3CC3)nc12` [Compound 26, N-(2-cyclo-propylquin-olin-8-yl)-3-methylpyr-idine-2-sulfonamide], with 500 to 5000 nM. Consider `Cc1cccnc1S(=O)(=O)Nc1c(OCC2CC2)ccc2cccnc12` [Compound 16, N-(7-(cyclo-propylmeth-oxy)quinolin-8-yl)-3-meth-ylpyridine-2-sulfonamide], for which the IC50 is less than 200 nM. The same measure, in the same setting: then `O=S(=O)(Nc1cccc2cccnc12)c1cc2ccccc2cn1` [Compound 270, N-(quinolin-8-yl)isoquinoline-3-sulfonamide], with 200 to 500 nM. On the same count and under the same terms, then `Cc1ncc(S(=O)(=O)Nc2cccc3cccnc23)cc1Cl` [Compound 180, 5-chloro-6-methyl-N-(quinolin-8-yl)pyridine-3-sulfonamide], with 500 to 5000 nM; and `CCn1ccnc1S(=O)(=O)Nc1c(OC)ccc2cccnc12` [Compound 84, 1-ethyl-N-(7-methoxyquin-olin-8-yl)-1H-imidazole-2-sulfonamide], with 200 to 500 nM; and `Cc1ccc(S(=O)(=O)Nc2cccc3cccnc23)cn1` [Compound 157, 6-methyl-N-(quinolin-8-yl)pyridine-3-sulfonamide], with 500 to 5000 nM.

As to `Cc1ccc(S(=O)(=O)Nc2cccc3cc(F)cnc23)nc1` [Compound 87, N-(3-fluoro-quinolin-8-yl)-5-methyl-pyridine-2-sulfonamide], the IC50 lay within 200 to 500 nM. Consider `Cc1ccc(S(=O)(=O)Nc2cc(F)cc3cccnc23)nc1` [Compound 88, N-(6-fluoro-quinolin-8-yl)-5-methyl-pyridine-2-sulfonamide], for which the IC50 was 500 to 5000 nM. The same measure, in the same setting: then `COc1nccc(S(=O)(=O)Nc2cccc3cccnc23)n1` [Compound 197, 2-methoxy-N-(quinolin-8-yl)pyrimidine-4-sulfonamide], with 500 to 5000 nM; and `Cc1cccnc1S(=O)(=O)Nc1c(C2CC2)ccc2cccnc12` [Compound 17, N-(7-cyclo-propylquin-olin-8-yl)-3-methylpyr-idine-2-sulfonamide], with 200 to 500 nM. Still for that read-out and setting: then `C[C@@H](C1CC1)n1ccnc1S(=O)(=O)Nc1cccc2cccnc12` [Compound 185, (S)-1-(1-cyclopropyl-ethyl)-N-(quinolin-8-yl)-1H-imidazole-2-sulfonamide], with 200 to 500 nM; and `O=S(=O)(Nc1cccc2cccnc12)c1nc2ccccc2[nH]1` [Compound 232, N-(quinolin-8-yl)-1H-benzo[d] imidazole-2-sulfonamide], with 500 to 5000 nM.

On to `COc1ccc2cccnc2c1NS(=O)(=O)c1ccc(C)cn1` [Compound 111, N-(7-methoxy-quinolin-8-yl)-5-methylpyr-idine-2-sulfonamide], for which the IC50 was 500 to 5000 nM. The same measure, in the same setting: then `Cc1ccc(S(=O)(=O)Nc2cc(Cl)cc3cccnc23)nc1` [Compound 115, N-(6-chloro-quinolin-8-yl)-5-methylpyr-idine-2-sulfon-amide], with 500 to 5000 nM; and `CCn1ccnc1S(=O)(=O)Nc1ccc(S(C)(=O)=O)c2cccnc12` [Compound 294, 1-ethyl-N-(5-(methylsulfonyl)quinolin-8-yl)-1H-imidazole-2-sulfonamide], with 200 to 500 nM. Same read-out and setting: then `O=S(=O)(Nc1cccc2cccnc12)c1cnccc1C(F)(F)F` [Compound 147, N-(quinolin-8-yl)-4-(trifluoromethyl) pyridine-3-sulfonamide], with 500 to 5000 nM; and `O=S(=O)(Nc1cccc2cccnc12)c1ccc(C(F)(F)F)cn1` [Compound 145, N-(quinolin-8-yl)-5-(trifluoromethyl) pyridine-2-sulfonamide], with 200 to 500 nM; and `O=S(=O)(Nc1c(Cl)cc(F)c2cccnc12)c1ncccc1C1CC1` [Compound 140, N-(7-chloro-5-fluoroquinolin-8-yl)-3-cyclo-propylpyridine-2-sulfonamide], with 500 to 5000 nM. The same measure, in the same setting: then `Cc1cnc2c(NS(=O)(=O)c3ncccc3C)cccc2c1` [Compound 66, 3-methyl-N-(3-methyl-quinolin-8-yl)pyridine-2-sulfonamide], with 500 to 5000 nM. `Cc1cnccc1S(=O)(=O)Nc1cccc2cccnc12` [Compound 149, 3-methyl-N-(quinolin-8-yl)pyridine-4-sulfonamide]: the IC50 is 500 to 5000 nM. As to `CCn1ccnc1S(=O)(=O)Nc1cccc2c(C(C)=O)ccnc12` [Compound 288, N-(4-acetylquinolin-8-yl)-1-ethyl-1H-imidazole-2-sulfonamide], the IC50 was 200 to 500 nM. As for `Cc1ccc(C(F)(F)F)c(S(=O)(=O)Nc2cccc3cccnc23)n1` [Compound 165, 6-methyl-N-(quinolin-8-yl)-3-(trifluoromethyl) pyridine-2-sulfonamide], the IC50 fell in the range of 200 to 500 nM. Take `Cc1ccc2cccc(NS(=O)(=O)c3ncccc3C)c2n1` [Compound 67, 3-methyl-N-(2-methyl-quinolin-8-yl)pyridine-2-sulfonamide]: the IC50 is 500 to 5000 nM.

Regarding `Cc1cc(C(F)(F)F)ncc1S(=O)(=O)Nc1cccc2cccnc12` [Compound 166, 4-methyl-N-(quinolin-8-yl)-6-(trifluoromethyl) pyridine-3-sulfonamide], the IC50 lay in the range of 500 to 5000 nM.

As to `COc1ccc(S(=O)(=O)Nc2cccc3cccnc23)cn1` [Compound 144, 6-methoxy-N-(quinolin-8-yl)pyridine-3-sulfonamide], the IC50 lay in the range of 500 to 5000 nM. `Cc1cnc(S(=O)(=O)Nc2cccc3cccnc23)n1C` [Compound 233, 1,5-dimethyl-N-(quinolin-8-yl)-1H-imidazole-2-sulfonamide]: the IC50 fell in the range of 200 to 500 nM.
